Values joined by “and” are separate entries in the source; they are usually repeats but may differ in a detail not shown here. Equal entries are not always repeated. Where two headings read alike, the source gives them in different places.
Columns and labels:
Format in all cases: in vivo
[1] = tested on: ABUTH = Abutilon theophrasti; test: Herbicidal action, visual scoring; settings: Table 2; scoring 3 weeks after application; (pe) pre-emergence, (po) post-emergence; g of A.S./ha by row: r6 35 (po), r7 1120 + 1120 (pe), r9 (1120 + 1120) (pe) + 35 (po)
Description: (§1) The herbicidal activity of the active substances or active substance mixtures was scored visually with the aid of the treated parcels in comparison with untreated control parcels. Damage to and development of all above-ground parts of plants was recorded here. Scoring was carried out on a percentage scale (100% action=all plants died; 50% action=50% of the plants and green plant parts died; 0% action=no discernible action=like control parcels. The mean of the scoring values of 4 parcels in each case was taken.
(§2) Seeds or rhizome pieces of monocotyledonous and dicotyledonous weeds are placed in sandy loam soil in pots, covered with soil and grown in the greenhouse under good growth conditions (temperature, humidity, water supply). Three weeks after sowing, the test plants in the three-leaf stage are treated with the compositions according to the invention. The compositions according to the invention which are formulated as wettable powders or as emulsion concentrates are sprayed in various dosages on the green parts of the plants at an application rate of 600 to 800 l of water/ha (converted). After the test plants have remained in the greenhouse for about 3 to 4 weeks under optimal growth conditions, the effect of the products is scored visually by comparison with untreated controls. When applied post-emergence, too, the compositions according to the invention have a good herbicidal activity against a broad spectrum of economically important grass weeds and broad-leaved weeds.
(§3) Crop plants were raised outdoors under natural outdoor conditions on plots in which seeds or rhizome sections of typical harmful plants had been sown or the natural weed infestation was used. The treatment with the compositions according to the invention was carried out after the emergence of the harmful plants and the crop plants, as a rule in the 2 to 4-leaf stage; in some cases (as indicated) the application of individual active substances or active substance combinations was carried out pre-emergence (cf. Example 1) or as a sequence treatment, in some cases pre-emergence and/or post-emergence.
(§4) After the application, e.g. 2, 4, 6 and 8 weeks after application, the action of the preparations was scored visually in comparison with untreated controls (cf. score in Example 1). […] The crop plants, however, were not damaged or were only insignificantly damaged as a result of the treatment with the herbicidal compositions.

[2] = tested on: PHBPU = Pharbitis purpurea; test: Herbicidal action, visual scoring; settings: Table 2; scoring 3 weeks after application; (pe) pre-emergence, (po) post-emergence; g of A.S./ha by row: r6 35 (po), r7 1120 + 1120 (pe), r9 (1120 + 1120) (pe) + 35 (po)
Description: as §1, §2, §3, §4

[3] = tested on: EPHHL = Euphorbia heterophylla; test: Herbicidal action, visual scoring; settings: Table 13, post-emergence, scoring 3 weeks after application, g of A.S./ha by row: r7 30, r8 100, r9 150, r10 30 + 50
Description: as §1, §2, §3, §4

[4] = tested on: IPOPU = Ipomoea purpureum; test: Herbicidal action, visual scoring; settings: Table 3, post-emergence, scoring 6 weeks after application, g of A.S./ha 15, 30, 45, 60, 300, 30 + 300
Description: as §1, §2, §3, §4

[5] = tested on: SOLNI; test: Herbicidal action, visual scoring; settings: Table 10, post-emergence, scoring 3 weeks after application, g of A.S./ha by row: r7 120, r8 60, r9 30, r10 15, r11 12, r12 6, r13 3, r14 30 + 6, r16 15 + 6, r18 30 + 3
Description: as §1, §2, §3, §4

[6] = tested on: XANOR (Xanthium orientalis); test: Herbicidal action, visual scoring; settings: Table 10, post-emergence, scoring 3 weeks after application, g of A.S./ha by row: r7 120, r8 60, r9 30, r10 15, r20 2000, r21 1000, r22 500, r23 30 + 1000, r25 15 + 1000, r27 30 + 500
Description: as §1, §2, §3, §4

[7] = tested on: Avena sterilis; test: Herbicidal action, visual scoring; settings: Table 8; post-emergence; scoring 46 days after application; g of A.S./ha by row: r7 60, r8 270, r9 450, r10 60 + 270
Description: as §1, §2, §3, §4

[8] = tested on: Chrysanthemum coronarium; test: Herbicidal action, visual scoring; settings: Table 8; post-emergence; scoring 46 days after application; g of A.S./ha by row: r7 60, r8 270, r9 450, r10 60 + 270
Description: as §1, §2, §3, §4

[9] = tested on: Sethoxidime-resistant corn (SR); test: Damage on crop plants (selectivity), visual scoring; settings: Table 22, post-emergence, scoring 4 weeks after application, g of A.S./ha by row: r7 50, r8 25, r9 12.5, r10 400, r11 200, r12 100, r13 12.5 + 100, r14 12.5 + 200, r15 25 + 100
Description: as §1, §3
After the application, e.g. 2, 4, 6 and 8 weeks after application, the action of the preparations was scored visually in comparison with untreated controls (cf. score in Example 1). […]

[10] = tested on: CHEAL = Chenopodium album; test: Herbicidal action, visual scoring; settings: Table 4; post-emergence; scoring 40 days after application; g of A.S./ha: 30, 45, 60, 300, 45 + 300
Description: as §1, §2, §3, §4

[11] = tested on: SIDSP = Sida spinosa; test: Herbicidal action, visual scoring; settings: post-emergence
Description: as §1, §2, §3, §4

[12] = tested on: POLCO = Polygonum convolvulus; test: Herbicidal action, visual scoring; settings: Table 4; post-emergence; scoring 40 days after application; g of A.S./ha: 30, 45, 60, 300, 45 + 300
Description: The herbicidal activity of the active substances or active substance mixtures was scored visually with the aid of the treated parcels in comparison with untreated control parcels. Damage to and development of all above-ground parts of plants was recorded here. Scoring was carried out on a percentage scale (100% action=all plants died; 50% action=50% of the plants and green plant parts died; 0% action=no discernible action=like control parcels. The mean of the scoring values of 4 parcels in each case was taken. […]
as §3, §4

[13] = tested on: corn; settings: post-emergence
Description: as §1, §3, §4

[14] = tested on: AGRRE = Agropyron repens; test: Herbicidal action, visual scoring; settings: Table 6, post-emergence, scoring 3 weeks after application, g of A.S./ha by row: r6 30, r7 45, r8 60, r9 2.5, r10 5, r11 7.5, r12 30 + 2.5, r13 30 + 5
Description: as §1, §2, §3, §4

[15] = tested on: ECHCG = Echinochloa crus-galli; test: Herbicidal action, visual scoring; settings: Table 12, post-emergence, scoring 3 weeks after application, g of A.S./ha by row: r6 120, r7 60, r8 30, r9 15, r10 1000, r11 500, r12 250, r13 30 + 500, r14 30 + 250, r15 15 + 250, r16 40, r17 20, r18 10, r19 30 + 20, r20 15 + 20, r21 30 + 10, r22 200, r23 100, r24 50, r25 30 + 100, r26 15 + 100, r27 30 + 50
Description: as §1, §2, §3, §4

[16] = Table 3, scoring 6 weeks after application, g of A.S./ha 15, 30, 45, 60, 300, 30 + 300
[17] = Table 5, scoring 3 weeks after application, g of A.S./ha by row: r6 15, r7 30, r8 45, r9 60, r10 900, r11 30 + 900

COc1cc(OC)nc(NC(=O)NS(=O)(=O)c2cc(NC=O)ccc2C(=O)N(C)C)n1 [(A1.1), N-[N-(4,6-dimethoxypyrimidin-2-yl)aminocarbonyl]-2-(dimethylaminocarbonyl)-5-(formylamino)benzenesulfonamide]
Herbicidal action ABUTH [1]: 88%
Herbicidal action PHBPU [2]: 45%
Herbicidal action EPHHL [3]: 70%
Herbicidal action IPOPU ([4]; 15 g of A.S./ha): 43%
Herbicidal action IPOPU ([4]; 30 g of A.S./ha): 67%
Herbicidal action IPOPU ([4]; 45 g of A.S./ha): 70%
Herbicidal action IPOPU ([4]; 60 g of A.S./ha): 83%
Herbicidal action SOLNI ([5]; 15 g active substance per ha): 65%
Herbicidal action SOLNI ([5]; 30 g active substance per ha): 83%
Herbicidal action SOLNI ([5]; 60 g active substance per ha): 90%
Herbicidal action SOLNI ([5]; 120 g active substance per ha): 90%
Herbicidal action XANOR ([6]; 15 g active substance per ha): 45%
Herbicidal action XANOR ([6]; 30 g active substance per ha): 55%
Herbicidal action XANOR ([6]; 120 g active substance per ha): 60%
Herbicidal action against Avena sterilis [7]: 83%
Herbicidal action against Chrysanthemum coronarium [8]: 20%

CS(=O)(=O)c1ccc(C(=O)C2C(=O)CCCC2=O)c([N+](=O)[O-])c1 [(B1.4.4), 2-(4-Mesyl-2-nitrobenzoyl)cyclohexane-1,3-dione]
Herbicidal action EPHHL ([3]; 100 g of active substance per ha): 63%
Herbicidal action EPHHL ([3]; 150 g of active substance per ha): 73%

CCC/C(=N\OCC)C1=C(O)CC(CC(C)SCC)CC1=O (centres unmarked) [(B1.6.33), sethoxydim]
Damage on corn (SR) [9]: 3% and 2% and 0%

N#Cc1cc(Br)c(O)c(Br)c1 [(B2.2.1), bromoxynil]
Herbicidal action CHEAL [10]: 75%
Herbicidal action IPOPU [4]: 53%
Herbicidal action SIDSP [11, 16]: 70%
Herbicidal action POLC0 [12]: 45%
Damage on corn [13, 16]: 0%
Damage on corn ([13]; Table 4, scoring 40 days after application, g of A.S./ha: 30, 45, 60, 300, 45 + 300): 0%

CCCCCCCCSC(=O)Oc1cc(Cl)nnc1-c1ccccc1 [(B2.3.3), pyridate]
Herbicidal action against SIDSP [11, 17]: 10%
Damage on corn [13, 17]: 0%

COc1nc(C)nc(NC(=O)NS(=O)(=O)c2cc(I)ccc2C(=O)O)n1 [(B2.4.4), iodosulfuron]
Herbicidal action against AGRRE ([14]; 2.5 g of A.S./ha): 0%
Herbicidal action against AGRRE ([14]; 5 g of A.S./ha): 10%

CC(C)N.O=C(O)CNCP(=O)(O)O [(B3.2.1), glyphosate-isopropylammonium]
Herbicidal action ECHCG ([15]; 250 g active substance per ha): 73%
Herbicidal action ECHCG ([15]; 500 g active substance per ha): 83%
Herbicidal action ECHCG ([15]; 1000 g active substance per ha): 98%

Source: patent US6486096B1, “Herbicidal compositions with acylated aminophenylsulfonylureas” (priority 1998, dated 2002)
